# Test results from US12544395B2, “Combination compositions comprising a beta-lactamase inhibitor and uses thereof” (priority 2018, dated 2026).
# Experiments:
# Assay type in all cases: cell-based
# [1] = test system: panel of ESBL-producing Enterobacteriaceae (40 strains); test: Broth microdilution MIC50/MIC90 summary over the panel
# E. coli Si-FDL-GES = test: microbe, parasite or virus in culture
# E. coli ESBL 5 = test: Broth microdilution MIC (strain enzymes: CTX-M15, TEM-1)
# K. pneumoniae KP 8 = test: Broth microdilution MIC (strain enzymes: TEM-10, TEM-1, CTX-M15)
# E. coli SI-LP377 = test: microbe, parasite or virus in culture
compound,measurement,setting,value
"CCC(=O)N[C@H]1Cc2cccc(C(=O)O)c2OB1O [Compound 2, (R)-2-hydroxy-3-propionamido-3,4-dihydro-2H-benzo[e][1,2]oxaborinine-8-carboxylic acid]",Cephalexin MIC90,[1]; with inhibitor at 2 μg/mL,32 µg/mL
same,Cefdinir MIC50,[1]; with inhibitor at 4 μg/mL,0.5 µg/mL
same,Cefdinir MIC90,[1]; with inhibitor at 4 μg/mL,2 µg/mL
same,Cefixime MIC50,[1]; with inhibitor at 4 μg/mL,0.25 µg/mL
same,Cefixime MIC90,[1]; with inhibitor at 4 μg/mL,1 µg/mL
same,Cefpodoxime MIC50,[1]; with inhibitor at 4 μg/mL,1 µg/mL
same,Cefpodoxime MIC90,[1]; with inhibitor at 4 μg/mL,2 µg/mL
same,Ceftibuten MIC50,[1]; with inhibitor at 4 μg/mL,0.125 µg/mL
same,Ceftibuten MIC90,[1]; with inhibitor at 4 μg/mL,0.25 µg/mL
same,Cephalexin MIC50,[1]; with inhibitor at 4 μg/mL,8 µg/mL
same,Cephalexin MIC90,[1]; with inhibitor at 4 μg/mL,16 µg/mL
same,MIC of cefalexin (LEX),E. coli Si-FDL-GES; with inhibitor at 1 μg/mL,0.5 µg/mL
same,MIC of cefdinir (CDR),E. coli Si-FDL-GES; with inhibitor at 1 μg/mL,0.5 µg/mL
same,MIC of cefixime (CFM),E. coli Si-FDL-GES; with inhibitor at 1 μg/mL,0.25 µg/mL
same,MIC of ceftibuten (CTB),E. coli Si-FDL-GES; with inhibitor at 1 μg/mL,0.125 µg/mL
same,MIC of cefalexin (LEX),E. coli Si-FDL-GES; with inhibitor at 2 μg/mL,0.5 µg/mL
same,MIC of cefdinir (CDR),E. coli Si-FDL-GES; with inhibitor at 2 μg/mL,0.5 µg/mL
same,MIC of cefixime (CFM),E. coli Si-FDL-GES; with inhibitor at 2 μg/mL,0.125 µg/mL
same,MIC of ceftibuten (CTB),E. coli Si-FDL-GES; with inhibitor at 2 μg/mL,0.125 µg/mL
same,MIC of cefalexin (LEX),E. coli Si-FDL-GES; with inhibitor at 4 μg/mL,0.5 µg/mL
same,MIC of cefdinir (CDR),E. coli Si-FDL-GES; with inhibitor at 4 μg/mL,0.5 µg/mL
same,MIC of cefixime (CFM),E. coli Si-FDL-GES; with inhibitor at 4 μg/mL,0.125 µg/mL
same,MIC of ceftibuten (CTB),E. coli Si-FDL-GES; with inhibitor at 4 μg/mL,0.125 µg/mL
same,MIC of cefalexin (LEX),E. coli ESBL 5; with inhibitor at 1 μg/mL,8 µg/mL
same,MIC of cefdinir (CDR),E. coli ESBL 5; with inhibitor at 1 μg/mL,8 µg/mL
same,MIC of cefixime (CFM),E. coli ESBL 5; with inhibitor at 1 μg/mL,1 µg/mL
same,MIC of ceftibuten (CTB),E. coli ESBL 5; with inhibitor at 1 μg/mL,0.25 µg/mL
same,MIC of cefalexin (LEX),E. coli ESBL 5; with inhibitor at 2 μg/mL,2 µg/mL
same,MIC of cefdinir (CDR),E. coli ESBL 5; with inhibitor at 2 μg/mL,2 µg/mL
same,MIC of cefixime (CFM),E. coli ESBL 5; with inhibitor at 2 μg/mL,1 µg/mL
same,MIC of ceftibuten (CTB),E. coli ESBL 5; with inhibitor at 2 μg/mL,0.125 µg/mL
same,MIC of cefalexin (LEX),E. coli ESBL 5; with inhibitor at 4 μg/mL,2 µg/mL
same,MIC of cefdinir (CDR),E. coli ESBL 5; with inhibitor at 4 μg/mL,2 µg/mL
same,MIC of cefixime (CFM),E. coli ESBL 5; with inhibitor at 4 μg/mL,0.5 µg/mL
same,MIC of ceftibuten (CTB),E. coli ESBL 5; with inhibitor at 4 μg/mL,0.125 µg/mL
same,MIC of cefalexin (LEX),K. pneumoniae KP 8; with inhibitor at 1 μg/mL,0.25 µg/mL
same,MIC of cefdinir (CDR),K. pneumoniae KP 8; with inhibitor at 1 μg/mL,0.25 µg/mL
same,MIC of cefixime (CFM),K. pneumoniae KP 8; with inhibitor at 1 μg/mL,0.25 µg/mL
same,MIC of ceftibuten (CTB),K. pneumoniae KP 8; with inhibitor at 1 μg/mL,0.06 µg/mL
same,MIC of cefalexin (LEX),K. pneumoniae KP 8; with inhibitor at 2 μg/mL,0.125 µg/mL
same,MIC of cefdinir (CDR),K. pneumoniae KP 8; with inhibitor at 2 μg/mL,0.125 µg/mL
same,MIC of cefixime (CFM),K. pneumoniae KP 8; with inhibitor at 2 μg/mL,0.125 µg/mL
same,MIC of ceftibuten (CTB),K. pneumoniae KP 8; with inhibitor at 2 μg/mL,0.03 µg/mL
same,MIC of cefalexin (LEX),K. pneumoniae KP 8; with inhibitor at 4 μg/mL,0.125 µg/mL
same,MIC of cefdinir (CDR),K. pneumoniae KP 8; with inhibitor at 4 μg/mL,0.125 µg/mL
same,MIC of cefixime (CFM),K. pneumoniae KP 8; with inhibitor at 4 μg/mL,0.125 µg/mL
same,MIC of ceftibuten (CTB),K. pneumoniae KP 8; with inhibitor at 4 μg/mL,0.03 µg/mL
same,MIC of cefalexin (LEX),E. coli SI-LP377; with inhibitor at 1 μg/mL,4 µg/mL
same,MIC of cefdinir (CDR),E. coli SI-LP377; with inhibitor at 1 μg/mL,4 µg/mL
same,MIC of cefixime (CFM),E. coli SI-LP377; with inhibitor at 1 μg/mL,0.5 µg/mL
same,MIC of ceftibuten (CTB),E. coli SI-LP377; with inhibitor at 1 μg/mL,0.125 µg/mL
same,MIC of cefalexin (LEX),E. coli SI-LP377; with inhibitor at 2 μg/mL,1 µg/mL
same,MIC of cefdinir (CDR),E. coli SI-LP377; with inhibitor at 2 μg/mL,1 µg/mL
same,MIC of cefixime (CFM),E. coli SI-LP377; with inhibitor at 2 μg/mL,0.25 µg/mL
same,MIC of ceftibuten (CTB),E. coli SI-LP377; with inhibitor at 2 μg/mL,0.125 µg/mL
same,MIC of cefalexin (LEX),E. coli SI-LP377; with inhibitor at 4 μg/mL,1 µg/mL
same,MIC of cefdinir (CDR),E. coli SI-LP377; with inhibitor at 4 μg/mL,1 µg/mL
same,MIC of cefixime (CFM),E. coli SI-LP377; with inhibitor at 4 μg/mL,0.125 µg/mL
same,MIC of ceftibuten (CTB),E. coli SI-LP377; with inhibitor at 4 μg/mL,0.125 µg/mL
